Assay results reported in patent US10322136B2, “Composition for inhibiting growth or proliferation of chronic myelogenous leukemia cancer stem cells, and screening method therefor” (HIROSHIMA UNIVERSITY, priority 2015, dated 2019).

How the values were obtained:
normal HSCs [1] = experiment: Colony-forming assay, LT-normal HSCs on OP-9 stromal cells; type: cell-based, mouse; conditions: 5 μM, 5 days, hypoxic (3% O2)
Method: (§1) LT-CML stem cells or LT-normal HSCs (1×10^3/plate) were co-cultured on OP-9 stromal cells for 5 days in the presence of either vehicle (control) or a dipeptide transporter inhibitor cefadroxil (5 μM). Cells were harvested, washed with PBS, and plated in semi-solid methylcellulose medium containing SCF, IL-3, IL-6 and erythropoietin (Methocult GF M3434; Stem Cell Technologies). After growth for 7 days in a humidified atmosphere containing 5% CO2 at 37° C., colony numbers were counted under a light microscope.

Raptor-Ser792 = Raptor-Ser792 phosphorylation in LT-CML cancer stem cells; type: cell-based, mouse; conditions: LT-CML cancer stem cells in vitro
normal HSCs [2] = conditions: mouse, in vivo
Description: C57BL/6 (CD45.2 for the Ly5 locus) and congenic C57BL/6 (CD45.1 for the Ly5 locus; B6-Ly5.1) mice were purchased from Sankyo-Lab Service (Tsukuba, Japan). Lethally irradiated (9 Gy) C57BL/6 (CD45.2) recipient mice were reconstituted with 1×10^4 normal KLS^+ cells (HSCs) from congenic C57BL/6 (CD45.1) (B6-Ly5.1) mice in competition with 5×10^5 unfractionated BM MNCs derived from C57BL/6 (CD45.2) mice. Transplanted recipients then received vehicle or cefadroxil (36 mgKg^−1day^−1) from day 0 to 8 weeks post transplantation. Reconstitution of donor-derived cells (CD45.1) was monitored at 4 and 8 weeks post transplantation by flow cytometric analysis of peripheral blood mononuclear cells stained with monoclonal antibodies (mAbs) against CD45.2 (104)-FITC and CD45.1 (A20)-PE.

AMPK = experiment: Duolink in situ PLA, AMPK phosphorylation in LT-CML cancer stem cells; type: cell-based, mouse; conditions: LT-CML cancer stem cells in vitro
Method: (§2) To examine phosphorylation of Smad2, Smad3, p38MAPK, AMPK, and S6 ribosomal protein, and Foxo3a-Smad2 and Foxo3a-Smad3 interactions, Duolink® in situ PLA assay (Olink Bioscience) was used. LT-CML stem cells, ST-CML stem cells, CD48^+, MPP, and KLS^− CML cells that were freshly isolated from CML-affected mice, and LT-normal HSCs that were freshly isolated from healthy control littermates, were immediately fixed with 4% paraformaldehyde for 30 min.
(§3) For in vitro inhibitor experiments, LT-CML stem cells were incubated in 3% O2 at 37° C. for 30 min with vehicle (control; artificial gastric fluid solution (900 ml ddH2O containing 2.0 g of NaCl, 7 ml of conc. HCl and 3.2 g of pepsin)), 5 μM Ly364947 (TGF-β type I receptor kinase Alk5 inhibitor; Merck), 5 μM SB203580 (p38MAPK inhibitor; LC Laboratories), 5 μM GlySar (dipeptide transporter inhibitor; Sigma-Aldrich), 5 μM cefadroxil (dipeptide transporter inhibitor; Sigma-Aldrich), or 100 nM rapamycin (mTORC1 inhibitor; Cell Signaling Technologies). Treated cells were fixed with 4% paraformaldehyde for 30 min, and treated with 0.25% Triton X-100 for 15 min, washed and blocked by incubation in 5% FBS in TBS for 1 hr.
The proximate binding of these antibodies was then detected using Duolink® in situ PLA system which employs a set of two secondary antibodies in which one is conjugated to a minus strand PLA probe and the other is conjugated to a plus strand PLA probe. Nuclei were stained with DNA marker DAPI (Sigma). Stained slides were mounted using Fluoromount Plus (Diagnostic Biosystems) and fluorescent images were acquired by confocal microscopy (FV10i, Olympus) and Photoshop software (Adobe). The number of fluorescent foci per single cell was quantified using Duolink®Image Tool software (Olink Bioscience).

S6 ribosomal protein = experiment: Duolink in situ PLA, S6 ribosomal protein phosphorylation in LT-CML cancer stem cells; type: cell-based, mouse; conditions: 30 min; GlySar or cefadroxil 5 μM; rapamycin 100 nM
Method: as §2
as §3, with “Treated cells were fixed with 4% paraformaldehyde for 30 min, and treated with 0.25% Triton X-100 for 15 min, washed and blocked by incubation in 5% FBS in TBS for 1 hr.” left out
The proximate binding of these antibodies was then detected using Duolink® in situ PLA system which employs a set of two secondary antibodies in which one is conjugated to a minus strand PLA probe and the other is conjugated to a plus strand PLA probe. […] The number of fluorescent foci per single cell was quantified using Duolink®Image Tool software (Olink Bioscience).

LT-CML cancer stem cells = experiment: Colony-forming assay, LT-CML cancer stem cells on OP-9 stromal cells; type: cell-based, mouse; conditions: 5 μM, 5 days, hypoxic (3% O2)
Method: as §1, with “microscope. For combination treatments of dipeptide transporter inhibitor+tyrosine kinase inhibitor (TKI), LT-CML cancer stem cells (3×10^3) were plated on OP-9 stromal cells in the presence of cefadroxil (5 μM). After 24 h in culture, the cells received additional DMSO or 1 μM IM (Axon Medchem) and were incubated for another 4 days (total 5 days). Treated cells were washed with PBS, transferred to a semi-solid medium, and colony formation after 7 days was assessed as described above.” for “microscope.”

CML-KLS+ cells = experiment: Serial transplantation of CML stem cells; type: in vivo, mouse
Method: To evaluate the retention of the disease-initiating capacity by CML stem cells after treatment of mice with cefadroxil […] and/or IM in vivo, the number of GFP/BCR-ABL1+CMLKLS^+ cells in treated BCR-ABL1 CML-affected mice was determined, and subsequent secondary transplantation of the cells was performed. Briefly, CML-affected mice received by oral gavage for 30 days post BM transplantation as described above. The number of GFP/BCR-ABL1+CML-KLS+ cells among total GFP/BCR-ABL1+CML cells isolated from BM MNCs acquired from the two hindlimbs of treated CML-affected mice was assessed by flow cytometry. Freshly purified GFP/BCR-ABL1^+CML-KLS^+ cells (3×10^4) were then serially transplanted into a second set of lethally irradiated congenic recipient mice along with 5×10^5 normal BM MNCs derived from C57BL/6 mice. Mouse survival and disease recurrence were monitored for 90 days.

[3] = test system: Foxo3a-/- LT-CML cancer stem cells; experiment: Colony-forming capacity of Foxo3a-/- LT-CML cancer stem cells; type: cell-based, mouse; conditions: cefadroxil treatment in vitro
Method: as §1, with “To establish our Foxo3a-deficient tet-inducible CML mouse model, Foxo3a-deficient mice 42 (C57BL/6; F5) were crossed with Tal-tTA and TRE-BCR-ABL1 transgenic mice that were backcrossed for five generations in the C57BL/6 background, respectively. LT-CML” for “LT-CML”

With `CC1=C(C(=O)O)N2C(=O)[C@@H](NC(=O)[C@H](N)c3ccc(O)cc3)[C@H]2SC1` [cefadroxil] the “colony-forming capacity of normal HSCs” value (normal HSCs [1]) was “maintained normal levels”, the Raptor-Ser792 phosphorylation (Raptor-Ser792) was “did not promote” and the “frequency of donor-derived CD45.1 MNCs in peripheral blood” value (normal HSCs [2]) was “no increase”. The “phosphorylation of AMPK” value (AMPK) was “increased”, the “phosphorylation of S6” value (S6 ribosomal protein) was “decreased phosphorylation” and the “colony-forming capacity of LT-CML cancer stem cells” value (LT-CML cancer stem cells) was “significantly decreased”. The “ability of CML-KLS+ cells from treated mice to drive BCR-ABL1+ disease in new recipients” value (CML-KLS+ cells; 3x10^4 cells per recipient, donors treated with cefadroxil) was “completely lost their ability”, the “survival of new recipient mice” value (CML-KLS+ cells; recipients of CML-KLS+ cells from cefadroxil-treated mice) was “over 90 days” and the “number of colonies formed by Foxo3a-/- LT-CML cancer stem cells” value [3] was “not altered”.
